Laboratory results: PubChem BioAssay AID328 (DTP/NCI, 2004)
Where “and” joins values, the source holds several entries; their conditions need not be identical. Equal values may be shown once. Inconclusive results and toxic doses are left out.

Tested on: BDF1 mice, P388 leukemia ip, median survival T/C
Experiment: NCI In Vivo Anticancer Drug Screen. Data for tumor model P388 Leukemia (intraperitoneal) in B6D2F1 (BDF1) mice
Settings: endpoint: median survival time, higher = longer survival
How it was run: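 Each value expresses how treatment altered survival: treated-mouse outcome over vehicle-mouse outcome, both groups bearing the transplanted tumour.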

[1] = dose: 50.0 mg/kg/injection, schedule: Q01DX009 (ip), vehicle: saline with Tween-80
[2] = dose: 100.0 mg/kg/injection, schedule: Q01DX009 (ip), vehicle: saline with Tween-80
[3] = dose: 200.0 mg/kg/injection, schedule: Q01DX009 (ip), vehicle: saline with Tween-80
[4] = dose: 400.0 mg/kg/injection, schedule: Q01DX009 (ip), vehicle: saline
[5] = dose: 25.0 mg/kg/injection, schedule: Q01DX009 (ip), vehicle: Klucel (hydroxypropylcellulose) (HPC)
[6] = dose: 100.0 mg/kg/injection, schedule: Q01DX009 (ip), vehicle: Klucel (hydroxypropylcellulose) (HPC)
[7] = dose: 100.0 mg/kg/injection, schedule: Q04DX003 (ip), vehicle: Klucel (hydroxypropylcellulose) (HPC)
[8] = dose: 200.0 mg/kg/injection, schedule: Q01DX009 (ip), vehicle: Klucel (hydroxypropylcellulose) (HPC)
[9] = dose: 200.0 mg/kg/injection, schedule: Q04DX003 (ip), vehicle: Klucel (hydroxypropylcellulose) (HPC)
[10] = dose: 25.0 mg/kg/injection, schedule: Q01DX001 (ip), vehicle: saline sonified
[11] = dose: 100.0 mg/kg/injection, schedule: Q01DX001 (ip), vehicle: saline sonified
[12] = dose: 400.0 mg/kg/injection, schedule: Q04DX003 (ip), vehicle: Klucel (hydroxypropylcellulose) (HPC)
[13] = dose: 100.0 mg/kg/injection, schedule: Q04DX003 (ip), vehicle: saline with Tween-80
[14] = dose: 200.0 mg/kg/injection, schedule: Q04DX003 (ip), vehicle: saline with Tween-80
[15] = dose: 300.0 mg/kg/injection, schedule: Q01DX009 (ip), vehicle: Klucel (hydroxypropylcellulose) (HPC)
[16] = dose: 400.0 mg/kg/injection, schedule: Q01DX009 (ip), vehicle: Klucel (hydroxypropylcellulose) (HPC)

## O=C1Nc2ccccc2S/C1=C\c1ccc(C(F)(F)F)cc1
[1]
  T/C: 115 % of control
[2]
  T/C: 100 % of control
[3]
  T/C: 110 % of control

## CC(C)NC(=O)OCc1c(COC(=O)NC(C)C)c(-c2ccc(Cl)c(Cl)c2)n2c1CCC2
dose: 12.5 mg/kg/injection, schedule: Q01DX009 (ip), vehicle: other
  T/C: 204 % of control
dose: 25.0 mg/kg/injection, schedule: Q01DX009 (ip), vehicle: other
  T/C: 214 % of control

## COc1cc2cc(c1Cl)N(C)C(=O)C[C@H](OC(=O)[C@H](C)N(C)C(=O)CC(C)C)[C@]1(C)O[C@H]1[C@H](C)[C@@H]1C[C@@](O)(NC(=O)O1)[C@H](OC)C=C/C=C(\C)C2
dose: 0.1 micrograms/kg/injection, schedule: Q01DX009 (ip), vehicle: saline + alcohol
  T/C: 120 % of control
dose: 0.4 micrograms/kg/injection, schedule: Q01DX009 (ip), vehicle: saline + alcohol
  T/C: 174 % of control
dose: 0.8 micrograms/kg/injection, schedule: Q01DX009 (ip), vehicle: saline + alcohol
  T/C: 158 % of control
dose: 1.6 micrograms/kg/injection, schedule: Q01DX009 (ip), vehicle: saline + alcohol
  T/C: 154 % of control
dose: 3.1 micrograms/kg/injection, schedule: Q01DX009 (ip), vehicle: saline + alcohol
  T/C: 158 % of control and 165 % of control
dose: 6.2 micrograms/kg/injection, schedule: Q01DX009 (ip), vehicle: saline + alcohol
  T/C: 154 % of control and 201 % of control
dose: 12.5 micrograms/kg/injection, schedule: Q01DX009 (ip), vehicle: saline + alcohol
  T/C: 177 % of control and 187 % of control
dose: 25.0 micrograms/kg/injection, schedule: Q01DX009 (ip), vehicle: saline + alcohol
  T/C: 116 % of control

## Fc1ccc(C(Cl)Cl)cc1
dose: 100.0 mg/kg/injection, schedule: Q01DX009 (ip), vehicle: saline
  T/C: 104 % of control
dose: 200.0 mg/kg/injection, schedule: Q01DX009 (ip), vehicle: saline
  T/C: 109 % of control
[4]
  T/C: 118 % of control

## CCCC(CCC)(C(N)=O)C(=O)O
dose: 50.0 mg/kg/injection, schedule: Q01DX001 (ip), vehicle: Klucel (hydroxypropylcellulose) (HPC)
  T/C: 94 % of control
dose: 100.0 mg/kg/injection, schedule: Q01DX001 (ip), vehicle: Klucel (hydroxypropylcellulose) (HPC)
  T/C: 100 % of control
dose: 200.0 mg/kg/injection, schedule: Q01DX001 (ip), vehicle: Klucel (hydroxypropylcellulose) (HPC)
  T/C: 122 % of control

## COc1ccc(CNc2ncccn2)cc1
[5]
  T/C: 95 % of control
dose: 50.0 mg/kg/injection, schedule: Q01DX009 (ip), vehicle: Klucel (hydroxypropylcellulose) (HPC)
  T/C: 100 % of control
[6]
  T/C: 104 % of control
[7]
  T/C: 88 % of control
[8]
  T/C: 89 % of control
[9]
  T/C: 96 % of control

## COc1ccc(/C=C/c2ccc3ccccc3[n+]2C)c(OC)c1OC
dose: 5.0 mg/kg/injection, schedule: Q01DX009 (ip), vehicle: Klucel (hydroxypropylcellulose) (HPC)
  T/C: 109 % of control

## CSC(=S)NNC(=O)C1CCCCC1
[10]
  T/C: 100 % of control
dose: 50.0 mg/kg/injection, schedule: Q01DX001 (ip), vehicle: saline sonified
  T/C: 104 % of control
[11]
  T/C: 100 % of control

## Cc1cc(C)cc(C(O)(c2cc(C)cc(C)c2)c2cc(C)cc(C)c2)c1
[7]
  T/C: 100 % of control
[9]
  T/C: 90 % of control
[12]
  T/C: 110 % of control

## Cc1c(Cl)cccc1N1C(=O)CC(Sc2ccccc2N)C1=O (centres undefined)
[2]
  T/C: 110 % of control
[13]
  T/C: 95 % of control
[3]
  T/C: 105 % of control
[14]
  T/C: 104 % of control
dose: 400.0 mg/kg/injection, schedule: Q01DX009 (ip), vehicle: saline with Tween-80
  T/C: 105 % of control
dose: 400.0 mg/kg/injection, schedule: Q04DX003 (ip), vehicle: saline with Tween-80
  T/C: 109 % of control

## Cc1ccc(C(Br)C2=CC(C)(C)c3ccccc3C2=O)cc1 (centres undefined)
[6]
  T/C: 118 % of control
[7]
  T/C: 95 % of control
[8]
  T/C: 90 % of control and 95 % of control
[9]
  T/C: 113 % of control
[15]
  T/C: 113 % of control
[16]
  T/C: 100 % of control
[12]
  T/C: 113 % of control

## CC1=NN(c2ccccc2)C(=O)C1C(=S)SC1CC(=O)OC1=O (centres undefined)
[1]
  T/C: 100 % of control
[2]
  T/C: 112 % of control

## COc1cc([N+](=O)[O-])c(/C=C2/c3cc(OC)c(OC)cc3CCN2C)cc1Br
[6]
  T/C: 109 % of control
[7]
  T/C: 100 % of control
[8]
  T/C: 90 % of control
[9]
  T/C: 100 % of control
[16]
  T/C: 104 % of control
[12]
  T/C: 100 % of control

## OCCN(CCO)C(CO)(CO)CO
dose: 50.0 mg/kg/injection, schedule: Q01DX005 (ip), vehicle: saline
  T/C: 100 % of control
dose: 100.0 mg/kg/injection, schedule: Q01DX005 (ip), vehicle: saline
  T/C: 98 % of control
dose: 200.0 mg/kg/injection, schedule: Q01DX005 (ip), vehicle: saline
  T/C: 104 % of control

## O=c1cnn(C2OC(CO)C(O)C2O)c(=O)[nH]1 (centres undefined)
dose: 12.5 mg/kg/injection, schedule: Q01DX009 (ip), vehicle: Klucel (hydroxypropylcellulose) (HPC)
  T/C: 108 % of control and 115 % of control
[5]
  T/C: 123 % of control
dose: 75.0 mg/kg/injection, schedule: Q01DX009 (ip), vehicle: Klucel (hydroxypropylcellulose) (HPC)
  T/C: 112 % of control
dose: 150.0 mg/kg/injection, schedule: Q01DX009 (ip), vehicle: Klucel (hydroxypropylcellulose) (HPC)
  T/C: 106 % of control
dose: 180.0 mg/kg/injection, schedule: Q01DX009 (ip), vehicle: saline
  T/C: 111 % of control
dose: 200.0 mg/kg/injection, schedule: Q01DX010 (ip), vehicle: saline
  T/C: 116 % of control and 122 % of control
dose: 268.0 mg/kg/injection, schedule: Q01DX009 (ip), vehicle: saline
  T/C: 111 % of control
[15]
  T/C: 106 % of control
[4]
  T/C: 117 % of control
dose: 400.0 mg/kg/injection, schedule: Q01DX010 (ip), vehicle: saline
  T/C: 154 % of control
dose: 600.0 mg/kg/injection, schedule: Q01DX009 (ip), vehicle: saline
  T/C: 109 % of control
dose: 1200.0 mg/kg/injection, schedule: Q01DX009 (ip), vehicle: Klucel (hydroxypropylcellulose) (HPC)
  T/C: 91 % of control
dose: 1600.0 mg/kg/injection, schedule: Q01DX010 (ip), vehicle: saline
  T/C: 100 % of control

## OCC1(O)CC(O)C(O)(CO)CC1O (centres undefined)
dose: 50.0 mg/kg/injection, schedule: Q01DX009 (ip), vehicle: other
  T/C: 104 % of control
dose: 50.0 mg/kg/injection, schedule: Q04DX003 (ip), vehicle: saline
  T/C: 104 % of control
dose: 100.0 mg/kg/injection, schedule: Q01DX009 (ip), vehicle: other
  T/C: 95 % of control
dose: 100.0 mg/kg/injection, schedule: Q04DX003 (ip), vehicle: saline
  T/C: 116 % of control
dose: 200.0 mg/kg/injection, schedule: Q01DX009 (ip), vehicle: other
  T/C: 118 % of control
dose: 200.0 mg/kg/injection, schedule: Q04DX003 (ip), vehicle: saline
  T/C: 95 % of control

## CC1=C/C(O)CC(=O)Cc2nc(co2)C(=O)N2CCC=C2C(=O)OC(C(C)C)C(C)/C=C\C(=O)NC/C=C\1 (centres undefined)
[6]
  T/C: 118 % of control
dose: 0.5 micrograms/kg/injection, schedule: Q01DX009 (ip), vehicle: saline
  T/C: 105 % of control
dose: 1.0 micrograms/kg/injection, schedule: Q01DX009 (ip), vehicle: saline
  T/C: 101 % of control
dose: 2.0 micrograms/kg/injection, schedule: Q01DX009 (ip), vehicle: saline
  T/C: 108 % of control
dose: 4.0 micrograms/kg/injection, schedule: Q01DX009 (ip), vehicle: saline
  T/C: 101 % of control

## CC(=O)OC1CC2CCC1(C)C2(C)C (centres undefined)
dose: 50.0 mg/kg/injection, schedule: Q04DX003 (ip), vehicle: saline with Tween-80
  T/C: 109 % of control
[13]
  T/C: 109 % of control
[14]
  T/C: 118 % of control

## CCCCCCCCCCCCCCSCCSCCSCCCCCCCCCCCCCC
[10]
  T/C: 86 % of control
[11]
  T/C: 86 % of control

## CCOC(=O)C1Cc2c([nH]c(=O)[nH]c2=O)OC1c1cccc(Cl)c1 (centres undefined)
dose: 3.12 mg/kg/injection, schedule: Q01DX009 (ip), vehicle: saline with Tween-80
  T/C: 98 % of control
dose: 6.25 mg/kg/injection, schedule: Q01DX009 (ip), vehicle: saline with Tween-80
  T/C: 96 % of control and 102 % of control
dose: 12.5 mg/kg/injection, schedule: Q01DX009 (ip), vehicle: saline with Tween-80
  T/C: 93 % of control
dose: 25.0 mg/kg/injection, schedule: Q01DX009 (ip), vehicle: saline with Tween-80
  T/C: 99 % of control and 107 % of control
